For orientation: IC50 means the midpoint of a concentration-inhibition curve. Read a low IC50 as greater potency in that assay. As usually defined, the Papp is a coefficient for how fast a substance crosses the barrier. Lower therefore signals poor permeation.

The record followed here is ChEMBL document CHEMBL1147732, “Novel tacrine-melatonin hybrids as dual-acting drugs for Alzheimer disease, with improved acetylcholinesterase inhibitory and antioxidant properties” (J Med Chem, 2006).

Where only a bound is given, the exact number is not on record here.

For data set [1], the target named is T1, Acetylcholinesterase (Bos taurus, UniProt P23795).
T1 sequence (P23795 whole entry): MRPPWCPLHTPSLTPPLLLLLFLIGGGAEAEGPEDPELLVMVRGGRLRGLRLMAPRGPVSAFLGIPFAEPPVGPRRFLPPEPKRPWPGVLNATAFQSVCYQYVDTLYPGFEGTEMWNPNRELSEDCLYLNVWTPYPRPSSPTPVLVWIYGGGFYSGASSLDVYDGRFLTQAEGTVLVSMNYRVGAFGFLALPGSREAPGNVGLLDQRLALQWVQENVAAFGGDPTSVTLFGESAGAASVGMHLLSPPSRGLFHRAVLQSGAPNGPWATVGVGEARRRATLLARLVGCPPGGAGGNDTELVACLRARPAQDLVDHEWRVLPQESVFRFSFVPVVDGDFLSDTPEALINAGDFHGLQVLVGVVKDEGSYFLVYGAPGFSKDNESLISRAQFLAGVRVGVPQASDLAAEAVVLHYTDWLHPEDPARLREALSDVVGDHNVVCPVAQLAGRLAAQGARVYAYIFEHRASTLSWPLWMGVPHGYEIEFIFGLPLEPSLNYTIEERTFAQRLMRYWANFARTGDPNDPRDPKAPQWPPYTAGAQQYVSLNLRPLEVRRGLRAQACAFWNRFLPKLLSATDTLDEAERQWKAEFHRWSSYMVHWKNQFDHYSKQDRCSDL
Description: Inhibition of AchE from bovine erythrocytes

In a further data set the target is Butyrylcholinesterase (Equus caballus, UniProt Q9N1N9).
A further data set in a line: in vitro. As to conditions: pig, PAMPA.
Data set [2] concerns the target Acetylcholinesterase (Homo sapiens, UniProt P22303).
The target of another data set is Cholinesterase (Homo sapiens, UniProt P06276).
Chain of Cholinesterase (P06276 whole entry): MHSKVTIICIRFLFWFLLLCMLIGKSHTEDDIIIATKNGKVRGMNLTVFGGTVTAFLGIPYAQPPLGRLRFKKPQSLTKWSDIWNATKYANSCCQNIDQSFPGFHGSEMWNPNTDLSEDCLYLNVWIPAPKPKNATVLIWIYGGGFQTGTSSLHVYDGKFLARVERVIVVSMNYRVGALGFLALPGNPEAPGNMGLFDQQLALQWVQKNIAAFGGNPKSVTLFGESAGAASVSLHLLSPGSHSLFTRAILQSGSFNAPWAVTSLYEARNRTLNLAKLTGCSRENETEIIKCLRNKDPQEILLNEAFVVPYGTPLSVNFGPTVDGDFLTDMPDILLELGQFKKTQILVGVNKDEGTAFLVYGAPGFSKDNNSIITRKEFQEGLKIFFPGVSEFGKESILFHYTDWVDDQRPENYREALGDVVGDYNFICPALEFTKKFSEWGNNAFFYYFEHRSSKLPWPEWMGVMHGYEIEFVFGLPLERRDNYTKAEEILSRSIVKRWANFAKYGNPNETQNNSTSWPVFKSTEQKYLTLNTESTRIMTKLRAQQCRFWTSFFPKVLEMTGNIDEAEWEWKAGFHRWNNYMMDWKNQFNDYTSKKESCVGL

Chain of Butyrylcholinesterase (Q9N1N9 whole entry): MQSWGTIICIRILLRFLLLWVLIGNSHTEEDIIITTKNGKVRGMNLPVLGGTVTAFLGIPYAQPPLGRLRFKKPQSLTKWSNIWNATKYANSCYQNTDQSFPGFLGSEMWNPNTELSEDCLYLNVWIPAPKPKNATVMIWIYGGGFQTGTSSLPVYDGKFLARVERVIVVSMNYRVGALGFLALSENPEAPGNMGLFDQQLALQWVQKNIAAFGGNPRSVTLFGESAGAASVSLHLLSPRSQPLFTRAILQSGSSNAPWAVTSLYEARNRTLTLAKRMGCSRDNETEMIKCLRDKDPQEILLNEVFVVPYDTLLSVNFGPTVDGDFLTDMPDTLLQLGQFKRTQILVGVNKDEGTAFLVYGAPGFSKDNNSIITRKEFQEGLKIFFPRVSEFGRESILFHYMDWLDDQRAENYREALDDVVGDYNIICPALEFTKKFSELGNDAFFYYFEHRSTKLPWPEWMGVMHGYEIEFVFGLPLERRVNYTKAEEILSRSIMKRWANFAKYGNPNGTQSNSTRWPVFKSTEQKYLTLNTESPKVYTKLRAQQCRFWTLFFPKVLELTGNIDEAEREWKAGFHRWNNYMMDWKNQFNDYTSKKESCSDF
Chain of Acetylcholinesterase (Homo sapiens, UniProt P22303) (P22303 whole entry): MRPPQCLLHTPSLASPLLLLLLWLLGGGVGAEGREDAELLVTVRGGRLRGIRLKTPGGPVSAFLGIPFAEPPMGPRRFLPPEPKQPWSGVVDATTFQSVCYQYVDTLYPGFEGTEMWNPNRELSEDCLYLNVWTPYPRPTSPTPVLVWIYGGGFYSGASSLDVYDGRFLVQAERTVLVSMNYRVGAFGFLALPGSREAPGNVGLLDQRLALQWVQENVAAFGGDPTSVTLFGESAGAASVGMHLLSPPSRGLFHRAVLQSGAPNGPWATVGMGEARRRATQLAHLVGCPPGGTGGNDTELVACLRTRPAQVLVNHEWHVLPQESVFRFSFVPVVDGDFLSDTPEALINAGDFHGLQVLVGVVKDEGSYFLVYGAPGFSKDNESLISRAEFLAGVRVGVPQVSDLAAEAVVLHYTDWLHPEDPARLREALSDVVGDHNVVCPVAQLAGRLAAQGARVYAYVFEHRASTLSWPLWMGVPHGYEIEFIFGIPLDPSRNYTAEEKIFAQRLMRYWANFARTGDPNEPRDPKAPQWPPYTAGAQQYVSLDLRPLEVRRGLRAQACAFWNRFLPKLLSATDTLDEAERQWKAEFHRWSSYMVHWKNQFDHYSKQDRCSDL
Description for Butyrylcholinesterase: Inhibition of BuChE from horse serum
Description for in vitro: Permeability in BBB by PAMPA using a lipid extract of porcine brain

As for `COc1ccc2[nH]cc(CCNC(=O)CCCCCNc3c4c(nc5ccccc35)CCCC4)c2c1`, the IC50 against Acetylcholinesterase [1] amounted to 9 nM; against Butyrylcholinesterase it was 2 nM. The molecule further had a Papp in “in vitro” of 7.7 ×10⁻⁶ cm/s.
Consider `O=C(CCCCCNc1c2c(nc3cc(Cl)cc(Cl)c13)CCCC2)NCCc1c[nH]c2ccccc12`, for which the IC50 turned out to be 3.5 nM at Acetylcholinesterase [1] and 8.2 nM against Butyrylcholinesterase. Also, the Papp in the data set “in vitro” turned out to be 8.4 ×10⁻⁶ cm/s.
With `O=C(CCCCCCNc1c2c(nc3cc(Cl)cc(Cl)c13)CCCC2)NCCc1c[nH]c2ccccc12`, the IC50 against Acetylcholinesterase [1] was determined as 2 nM; on Acetylcholinesterase [2] it was 0.008 nM; on Cholinesterase, 7.8 nM; against Butyrylcholinesterase it was 85 nM.
As for `O=C(CCCCCCNc1c2c(nc3ccccc13)CCCC2)NCCc1c[nH]c2ccccc12`, the IC50 against Acetylcholinesterase [1] stood at 1 nM; at Acetylcholinesterase [2] it was 0.5 nM; at Cholinesterase it was 6.8 nM; against Butyrylcholinesterase, 0.95 nM. Moreover, the Papp in the data set “in vitro” worked out at 9.2 ×10⁻⁶ cm/s.
As to `COc1ccc2[nH]cc(CCNC(=O)CCCCCNc3c4c(nc5cc(Cl)ccc35)CCCC4)c2c1`, the IC50 against Acetylcholinesterase [1] worked out at 12 nM; against Butyrylcholinesterase, 55 nM.
For `O=C(CCCCCNc1c2c(nc3ccccc13)CCCC2)NCCc1c[nH]c2ccccc12`, the IC50 against Acetylcholinesterase [1] is 4 nM; against Butyrylcholinesterase, 12 nM. This molecule also gave an apparent permeability (Papp) in the data set “in vitro” of 11 ×10⁻⁶ cm/s.
On to `COc1ccc2[nH]cc(CCNC(=O)CCCCCNc3c4c(nc5cccc(Cl)c35)CCCC4)c2c1`, for which the figures for the IC50 against Acetylcholinesterase [1] and at Butyrylcholinesterase were 25 nM and 22 nM, respectively. The same molecule gave a Papp in “in vitro” of 8.9 ×10⁻⁶ cm/s.
As to `O=C(CCCCCNc1c2c(nc3cccc(Cl)c13)CCCC2)NCCc1c[nH]c2ccccc12`, the IC50 against Acetylcholinesterase [1] worked out at 65 nM; at Acetylcholinesterase [2] it was 0.87 nM; against Cholinesterase it was 23 nM; against Butyrylcholinesterase, 15 nM. In “in vitro”, this molecule registered a Papp of 5.2 ×10⁻⁶ cm/s.
Regarding `O=C(CCCCCNc1c2c(nc3ccccc13)CCCC2)NCCc1c[nH]c2ccc(O)cc12`, the IC50 was 35 nM on Acetylcholinesterase [1], 0.45 nM on Acetylcholinesterase [2], 1 nM at Cholinesterase and 3.5 nM against Butyrylcholinesterase. Further, the Papp in the data set “in vitro” turned out to be 2 ×10⁻⁶ cm/s.
`COc1ccc2[nH]cc(CCNC(=O)CCCCCCNc3c4c(nc5cc(Cl)cc(Cl)c35)CCCC4)c2c1`: the half-inhibitory concentration (IC50) on Acetylcholinesterase [1] came out at 5 nM; at Acetylcholinesterase [2], 0.04 nM; against Cholinesterase, 25 nM; at Butyrylcholinesterase, 100 nM.
On to `O=C(CCCCCCNc1c2c(nc3cc(Cl)ccc13)CCCC2)NCCc1c[nH]c2ccccc12`, for which the IC50 was found to be 0.2 nM at Acetylcholinesterase [1], 0.1 nM against Acetylcholinesterase [2], 35 nM against Cholinesterase and 8.1 nM against Butyrylcholinesterase.
For the molecule `COc1ccc2[nH]cc(CCNC(=O)CCCCCCNc3c4c(nc5ccccc35)CCCC4)c2c1`, the IC50 against Acetylcholinesterase [1] was determined as 2.3 nM; against Acetylcholinesterase [2], 0.65 nM; against Cholinesterase it was 3 nM; at Butyrylcholinesterase it was 2.5 nM. In addition, the Papp in “in vitro” came out at 8.6 ×10⁻⁶ cm/s.
Turning to `O=C(CCCCCNc1c2c(nc3cc(Cl)ccc13)CCCC2)NCCc1c[nH]c2ccccc12`, the values for the IC50 against Acetylcholinesterase [1] and at Butyrylcholinesterase were 2 nM and 5.2 nM, respectively. In the data set “in vitro”, this molecule came in with a Papp of 7.7 ×10⁻⁶ cm/s.
Turning to `COc1ccc2[nH]cc(CCNC(C)=O)c2c1` [MELATONIN], the IC50 at Acetylcholinesterase [1] and against Butyrylcholinesterase was > 100 nM in each case.
